# Where two headings read alike, the source gives them in different places.
# Key:
# Type in all cases: in vivo
# [1] = test system: Alopecurus myosuroides (ALOMY); assay: Post-emergence herbicidal action against ALOMY; conditions: visual rating about 3 weeks after treatment vs untreated controls (100% = plants have died, 0% = like control plants)
# Procedure, shortened: (§1)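 Post-emergence greenhouse spray, one-leaf stage, 600 l/ha water plus 0.5% additive; WP or EC formulations; application rates 320 g/ha or lower. Visual % damage vs untreated controls at ~3 weeks.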
# [2] = test system: Matricaria inodora (MATIN); assay: Post-emergence herbicidal action against MATIN; conditions: dosage 320 g/ha
# Procedure, shortened: as §1
# [3] = test system: Polygonum convolvulus (POLCO); assay: Pre-emergence herbicidal action against POLCO
# Procedure, shortened: (§2)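 Seeds sown in pots and covered with soil; WP or EC formulations sprayed onto the soil surface at 600 l/ha water with 0.5% additive, at 320 g/ha or lower. Greenhouse growth for about 3 weeks, then visual scoring as % effect against untreated controls (100% = plants dead).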
# [4] = test system: Amaranthus retroflexus (AMARE); assay: Pre-emergence herbicidal action against AMARE; conditions: visual scoring after about 3 weeks vs untreated controls
# Procedure, shortened: as §2
# [5] = test system: Echinochloa crus-galli (ECHCG); assay: Post-emergence herbicidal action against ECHCG
# Procedure, shortened: as §1
# [6] = test system: Pharbitis purpurea (PHBPU); assay: Pre-emergence herbicidal action against PHBPU; conditions: dosage 320 g/ha
# Procedure, shortened: as §2
# [7] = test system: Oryza sativa (ORYSA); conditions: 20 g/ha; crop plant compatibility, effect vs untreated controls
# Procedure, shortened: (§3)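 Crop injury rated visually in percent against untreated plants roughly 3 weeks after treatment (0% no effect, 100% plants dead). Compounds, as WP or EC with 0.5% additive in 600 l/ha water, were applied to the covering soil right after sowing; greenhouse growth. Suffixes a, b, c denote different dosages.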
# [8] = test system: Triticum aestivum (TRZAS); conditions: crop plant compatibility
# Procedure, shortened: as §3
# [9] = test system: Brassica napus (BRSNW); conditions: 20 g/ha, crop plant compatibility, in comparison to untreated controls
# Procedure, shortened: as §3
# [10] = test system: Zea mays (ZEAMX); conditions: crop plant compatibility; for Pre-emergence action against ZEAMX in %: in comparison to untreated controls
# Procedure, shortened: as §3
# [11] = test system: Digitaria sanguinalis (DIGSA); assay: Pre-emergence herbicidal action against DIGSA
# Procedure, shortened: as §2
# [12] = test system: Alopecurus myosuroides (ALOMY); assay: Pre-emergence herbicidal action against ALOMY; conditions: scored visually after about 3 weeks, 100% = plants have died
# Procedure, shortened: as §2
# [13] = test system: Setaria viridis (SETVI); assay: Pre-emergence herbicidal action against SETVI
# Procedure, shortened: as §2
# [14] = test system: Verconica persica (VERPE); assay: Post-emergence herbicidal action against VERPE
# Procedure, shortened: as §1
# [15] = test system: Setaria viridis (SETVI); assay: Post-emergence herbicidal action against SETVI
# Procedure, shortened: as §1
# [16] = test system: Viola tricolor (VIOTR); assay: Pre-emergence herbicidal action against VIOTR
# Procedure, shortened: as §2
# [17] = test system: Avena fatua (AVEFA); assay: Pre-emergence herbicidal action against AVEFA; conditions: 320 g/ha, visual scoring after about 3 weeks vs untreated controls
# Procedure, shortened: as §2
# [18] = test system: Pharbitis purpurea (PHBPU); assay: Post-emergence herbicidal action against PHBPU
# Procedure, shortened: as §1
# [19] = test system: Amaranthus retroflexus (AMARE); assay: Post-emergence herbicidal action against AMARE
# Procedure, shortened: as §1
# [20] = test system: Oryza sativa (ORYSA); conditions: crop plant compatibility
# Procedure, shortened: (§4)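 Test crops were treated 2 to 3 weeks after sowing, once they reached one leaf, by spraying compound in water with 0.5% additive at 600 l/ha. Visual scoring compared them with untreated controls roughly 3 weeks on, and appendices a, b and c denote different doses.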
# [21] = test system: Triticum aestivum (TRZAS); conditions: crop plant compatibility, effect vs untreated controls
# Procedure, shortened: as §4
# [22] = test system: Zea mays (ZEAMX); conditions: for Post-emergence action against ZEAMX in %: crop plant compatibility, 80 g/ha, effect vs untreated controls
# Procedure, shortened: as §4
# [23] = test system: Matricaria inodora (MATIN); assay: Pre-emergence herbicidal action against MATIN
# Procedure, shortened: as §2
# [24] = test system: Verconica persica (VERPE); assay: Pre-emergence herbicidal action against VERPE; conditions: dosage 320 g/ha
# Procedure, shortened: as §2
# [25] = test system: Lolium rigidum (LOLRI); assay: Pre-emergence herbicidal action against LOLRI
# Procedure, shortened: as §2
# [26] = test system: Viola tricolor (VIOTR); assay: Post-emergence herbicidal action against VIOTR
# Procedure, shortened: as §1
# [27] = test system: Echinochloa crus-galli (ECHCG); assay: Pre-emergence herbicidal action against ECHCG
# Procedure, shortened: as §2
# [28] = test system: Glycine max (GLXMA); conditions: pre-emergence, 80 g/ha, crop plant compatibility, in comparison to untreated controls
# Procedure, shortened: as §3
# [29] = test system: Polygonum convolvulus (POLCO); assay: Post-emergence herbicidal action against POLCO; conditions: dosage 320 g/ha
# Procedure, shortened: as §1
# [30] = test system: Lolium rigidum (LOLRI); assay: Post-emergence herbicidal action against LOLRI; conditions: dosage 320 g/ha
# Procedure, shortened: as §1
# [31] = test system: Abutilon theophrasti (ABUTH); assay: Post-emergence herbicidal action against ABUTH; conditions: 320 g/ha, visual rating about 3 weeks after treatment vs untreated controls (100% = plants have died, 0% = like control plants)
# Procedure, shortened: as §1
# [32] = 20 g/ha, effect vs untreated controls
# [33] = 320 g/ha, visual rating about 3 weeks after treatment
# [34] = 80 g/ha, effect in comparison to untreated controls
smiles,measurement,setting,value
COC(=O)COc1nn(-c2ncccc2F)c(-c2cncc(F)c2)c1Br [Example I-16],Post-emergence action against ALOMY in %,[1]; 80 g/ha,90%
same,Post-emergence action against ALOMY in %,[1]; 320 g/ha,90%
same,Post-emergence action against MATIN in %,[2],80%
same,Pre-emergence action against POLCO in %,[3]; dosage 80 g/ha,90%
same,Pre-emergence action against POLCO in %,[3]; dosage 320 g/ha,90%
same,Pre-emergence action against AMARE in %,[4]; 80 g/ha,100%
same,Pre-emergence action against AMARE in %,[4]; 320 g/ha,100%
same,Post-emergence action against ECHCG in %,[5]; dosage 80 g/ha,80%
same,Post-emergence action against ECHCG in %,[5]; dosage 320 g/ha,80%
same,Pre-emergence action against PHBPU in %,[6],80%
same,Pre-emergence action against ORYSA,[7],20%
same,Pre-emergence action against TRZAS,[8]; [32],10%
same,Pre-emergence action against TRZAS in %,"[8]; pre-emergence, 80 g/ha, in comparison to untreated controls",20%
same,Pre-emergence action against BRSNW in %,[9],10%
same,Pre-emergence action against ZEAMX,[10]; [32],10%
same,Pre-emergence action against DIGSA in %,"[11]; 80 g/ha, visual scoring after about 3 weeks vs untreated controls",100%
same,Pre-emergence action against DIGSA in %,[11]; dosage 320 g/ha,100%
same,Pre-emergence action against ALOMY,[12]; 80 g/ha,100%
same,Pre-emergence action against ALOMY,[12]; 320 g/ha,100%
same,Pre-emergence action against SETVI in %,[13]; dosage 80 g/ha,90%
same,Pre-emergence action against SETVI in %,[13]; dosage 320 g/ha,100%
same,Post-emergence action against VERPE in %,"[14]; 320 g/ha, VERPE",90%
same,Post-emergence action against VERPE in %,[14]; dosage 80 g/ha,80%
same,Post-emergence action against SETVI in %,[15]; dosage 80 g/ha,80%
same,Post-emergence action against SETVI in %,[15]; dosage 320 g/ha,80%
same,Pre-emergence action against VIOTR in %,"[16]; 320 g/ha, Viola tricolor",100%
same,Pre-emergence action against VIOTR in %,[16]; dosage 80 g/ha,100%
same,Pre-emergence action against AVEFA in %,[17],90%
same,Post-emergence action against PHBPU in %,[18]; dosage 80 g/ha,90%
same,Post-emergence action against PHBPU in %,[18]; dosage 320 g/ha,90%
same,Post-emergence action against AMARE in %,[19]; [33],80%
same,Post-emergence action against ORYSA in %,[20]; [32],0%
same,Post-emergence action against ORYSA in %,[20]; [34],10%
same,Post-emergence action against TRZAS in %,[21]; 20 g/ha,20%
same,Post-emergence action against ZEAMX in % (crop plant compatibility),"[22]; 20 g/ha, ZEAMX, effect in comparison to untreated controls",10%
same,Post-emergence action against ZEAMX in %,[22],20%
same,Pre-emergence action against MATIN in %,[23]; dosage 80 g/ha,100%
same,Pre-emergence action against MATIN in %,[23]; dosage 320 g/ha,100%
same,Pre-emergence action against VERPE in %,[24],90%
same,Pre-emergence action against LOLRI in %,[25]; dosage 80 g/ha,90%
same,Pre-emergence action against LOLRI in %,[25]; dosage 320 g/ha,100%
same,Post-emergence action against VIOTR in %,[26]; 80 g/ha,80%
same,Post-emergence action against VIOTR in %,[26]; 320 g/ha,80%
same,Pre-emergence action against ECHCG in %,[27]; dosage 80 g/ha,90%
same,Pre-emergence action against ECHCG in %,[27]; dosage 320 g/ha,90%
COC(=O)CCOC(=O)COc1nn(-c2ccccn2)c(-c2ccc(F)nc2)c1F [Example I-309],Post-emergence action against MATIN in %,[2],80%
same,Pre-emergence action against POLCO in %,[3]; dosage 320 g/ha,80%
same,Pre-emergence action against AMARE in %,[4]; 320 g/ha,90%
same,Post-emergence action against ECHCG in %,[5]; dosage 320 g/ha,90%
same,Pre-emergence action against ZEAMX in %,[10]; 80 g/ha,0%
same,Pre-emergence action against ZEAMX in %,[10]; 320 g/ha,10%
same,Pre-emergence action against GLXMA in %,[28],0%
same,Pre-emergence action against ALOMY,[12]; 320 g/ha,90%
same,Pre-emergence action against SETVI in %,[13]; dosage 320 g/ha,90%
same,Post-emergence action against VERPE in %,"[14]; 320 g/ha, VERPE",80%
same,Post-emergence action against VERPE in %,[14]; dosage 80 g/ha,80%
same,Post-emergence action against SETVI in %,[15]; dosage 320 g/ha,90%
same,Post-emergence action against PHBPU in %,[18]; dosage 80 g/ha,80%
same,Post-emergence action against PHBPU in %,[18]; dosage 320 g/ha,90%
same,Post-emergence action against AMARE in %,"[19]; 80 g/ha, visual rating about 3 weeks after treatment vs untreated controls (100% = plants have died, 0% = like control plants)",90%
same,Post-emergence action against AMARE in %,[19]; [33],90%
same,Pre-emergence action against MATIN in %,[23]; dosage 320 g/ha,90%
same,Post-emergence action against POLCO in %,[29],80%
same,Post-emergence action against LOLRI in %,[30],90%
same,Pre-emergence action against ECHCG in %,[27]; dosage 320 g/ha,80%
same,Post-emergence action against ABUTH in %,[31],80%
O=C(O)COc1nn(-c2ncccc2C(F)(F)F)c(-c2cncc(F)c2)c1Br [Example I-230],Pre-emergence action against POLCO in %,[3]; dosage 80 g/ha,80%
same,Pre-emergence action against POLCO in %,[3]; dosage 320 g/ha,90%
same,Pre-emergence action against AMARE in %,[4]; 320 g/ha,80%
same,Post-emergence action against ECHCG in %,[5]; dosage 320 g/ha,80%
same,Pre-emergence action against PHBPU in %,[6],90%
same,Pre-emergence action against GLXMA in %,[28],20%
same,Pre-emergence action against SETVI in %,[13]; dosage 320 g/ha,100%
same,Post-emergence action against VERPE in %,"[14]; 320 g/ha, VERPE",80%
same,Post-emergence action against VERPE in %,[14]; dosage 80 g/ha,80%
same,Post-emergence action against SETVI in %,[15]; dosage 320 g/ha,80%
same,Pre-emergence action against VIOTR in %,"[16]; 320 g/ha, Viola tricolor",90%
same,Pre-emergence action against VIOTR in %,[16]; dosage 80 g/ha,80%
same,Post-emergence action against PHBPU in %,[18]; dosage 320 g/ha,90%
same,Post-emergence action against AMARE in %,[19]; [33],90%
same,Post-emergence action against ORYSA in %,[20]; [34],0%
same,Post-emergence action against TRZAS in %,[21]; 80 g/ha,10%
same,Post-emergence action against ZEAMX in %,[22],0%
same,Post-emergence action against POLCO in %,[29],80%
same,Post-emergence action against VIOTR in %,[26]; 320 g/ha,80%
same,Pre-emergence action against ECHCG in %,[27]; dosage 320 g/ha,90%

# Reference: patent publication US20240041042A1, “1-(PYRIDYL)-5-AZINYLPYRAZOLE DERIVATIVES, AND THEIR USE FOR CONTROL OF UNDESIRED PLANT GROWTH” (Bayer Aktiengesellschaft, priority 2020, published 2024)
